# From patent publication US20240415914A1, “Water Dispersible Cannabinoid Compositions” (priority 2021, published 2024)
# Where two headings read alike, the source gives them in different places.
# Experiments:
# [1] = type: physicochemical; settings: stored at room temperature (21-25° C.)
# Method: At each time period, 0.05 g of powder was dissolved in 10 ml-15 of ethanol, diluted to fall within the analytical range, and injected into the LCMSMS for analysis.
# [2] = Stability of cannabinoid and Vitamin E components of Beverage 2 (AB Red) stored at 8° C. and 21-25° C., LCMSMS over 570 days
# Method: The LCMSMS was calibrated for 0-50 ng/ml cannabinoids with the same resin material used in the preparation of the concentrates. At each time period, 100 μml of beverage was diluted with 10 ml of methanol and injected into the LCMSMS for analysis.
smiles,measurement,setting,value
"C=C(C)[C@@H]1CCC(C)=C[C@H]1c1c(O)cc(CCCCC)c(C(=O)O)c1O [CBDA, cannabidiolic acid]",Stability in Powder Concentrate (content by LCMSMS),[1]; day 0,0.410 mg/g powder
same,Stability in Powder Concentrate (content by LCMSMS),[1]; day 1,0.412 mg/g powder
same,Stability in Powder Concentrate (content by LCMSMS),[1]; day 2,0.407 mg/g powder
same,Stability in Powder Concentrate (content by LCMSMS),[1]; day 3,0.406 mg/g powder
same,Stability in Powder Concentrate (content by LCMSMS),[1]; day 5,0.414 mg/g powder
same,Stability in Powder Concentrate (content by LCMSMS),[1]; day 8,0.415 mg/g powder
same,Stability in Powder Concentrate (content by LCMSMS),[1]; day 9,0.410 mg/g powder
same,Stability in Powder Concentrate (content by LCMSMS),[1]; day 10,0.418 mg/g powder
same,Stability in Powder Concentrate (content by LCMSMS),[1]; day 11,0.415 mg/g powder
same,Stability in Powder Concentrate (content by LCMSMS),[1]; day 12,0.396 mg/g powder
same,Stability in Powder Concentrate (content by LCMSMS),[1]; day 15,0.399 mg/g powder
same,Stability in Powder Concentrate (content by LCMSMS),[1]; day 16,0.427 mg/g powder
same,Stability in Powder Concentrate (content by LCMSMS),[1]; day 17,0.421 mg/g powder
same,Stability in Powder Concentrate (content by LCMSMS),[1]; day 18,0.418 mg/g powder
same,Stability in Powder Concentrate (content by LCMSMS),[1]; day 19,0.414 mg/g powder
same,Stability in Powder Concentrate (content by LCMSMS),[1]; day 22,0.419 mg/g powder
same,Stability in Powder Concentrate (content by LCMSMS),[1]; day 23,0.396 mg/g powder
same,Stability in Powder Concentrate (content by LCMSMS),[1]; day 24,0.403 mg/g powder
same,Stability in Powder Concentrate (content by LCMSMS),[1]; day 25,0.401 mg/g powder
same,Stability in Powder Concentrate (content by LCMSMS),[1]; day 26,0.397 mg/g powder
same,Stability in Powder Concentrate (content by LCMSMS),[1]; day 29,0.426 mg/g powder
same,Stability in Powder Concentrate (content by LCMSMS),[1]; day 30,0.405 mg/g powder
same,Stability in Powder Concentrate (content by LCMSMS),[1]; day 60,0.418 mg/g powder
same,Stability in Powder Concentrate (content by LCMSMS),[1]; day 90,0.413 mg/g powder
same,Stability in Powder Concentrate (content by LCMSMS),[1]; day 120,0.403 mg/g powder
same,Stability in Powder Concentrate (content by LCMSMS),[1]; day 150,0.412 mg/g powder
same,Stability in Powder Concentrate (content by LCMSMS),[1]; day 180,0.422 mg/g powder
same,Stability in Powder Concentrate (content by LCMSMS),[1]; day 210,0.427 mg/g powder
same,Stability in Powder Concentrate (content by LCMSMS),[1]; day 240,0.417 mg/g powder
same,Stability in Powder Concentrate (content by LCMSMS),[1]; day 270,0.424 mg/g powder
same,Stability in Powder Concentrate (content by LCMSMS),[1]; day 300,0.409 mg/g powder
same,Stability in Powder Concentrate (content by LCMSMS),[1]; day 330,0.424 mg/g powder
same,Stability in Powder Concentrate (content by LCMSMS),[1]; day 360,0.413 mg/g powder
same,Stability in Powder Concentrate (content by LCMSMS),[1]; day 390,0.407 mg/g powder
same,Stability in Powder Concentrate (content by LCMSMS),[1]; day 420,0.420 mg/g powder
same,Stability in Powder Concentrate (content by LCMSMS),[1]; day 450,0.398 mg/g powder
same,Stability in Powder Concentrate (content by LCMSMS),[1]; day 480,0.418 mg/g powder
same,Stability in Powder Concentrate (content by LCMSMS),[1]; day 510,0.411 mg/g powder
same,Stability in Powder Concentrate (content by LCMSMS),[1]; day 540,0.425 mg/g powder
same,Stability in Powder Concentrate (content by LCMSMS),[1]; day 570,0.408 mg/g powder
same,Stability of Cannabinoids in AB Red,"[2]; 8° C., 0 days",1.68 µg/mL
same,Stability of Cannabinoids in AB Red,"[2]; 8° C., 1 days",1.69 µg/mL
same,Stability of Cannabinoids in AB Red,"[2]; 8° C., 2 days",1.66 µg/mL
same,Stability of Cannabinoids in AB Red,"[2]; 8° C., 3 days",1.64 µg/mL
same,Stability of Cannabinoids in AB Red,"[2]; 8° C., 5 days",1.67 µg/mL
same,Stability of Cannabinoids in AB Red,"[2]; 8° C., 8 days",1.68 µg/mL
same,Stability of Cannabinoids in AB Red,"[2]; 8° C., 9 days",1.65 µg/mL
same,Stability of Cannabinoids in AB Red,"[2]; 8° C., 10 days",1.67 µg/mL
same,Stability of Cannabinoids in AB Red,"[2]; 8° C., 11 days",1.65 µg/mL
same,Stability of Cannabinoids in AB Red,"[2]; 8° C., 12 days",1.68 µg/mL
same,Stability of Cannabinoids in AB Red,"[2]; 8° C., 15 days",1.67 µg/mL
same,Stability of Cannabinoids in AB Red,"[2]; 8° C., 16 days",1.69 µg/mL
same,Stability of Cannabinoids in AB Red,"[2]; 8° C., 17 days",1.64 µg/mL
same,Stability of Cannabinoids in AB Red,"[2]; 8° C., 18 days",1.65 µg/mL
same,Stability of Cannabinoids in AB Red,"[2]; 8° C., 19 days",1.68 µg/mL
same,Stability of Cannabinoids in AB Red,"[2]; 8° C., 22 days",1.70 µg/mL
same,Stability of Cannabinoids in AB Red,"[2]; 8° C., 23 days",1.63 µg/mL
same,Stability of Cannabinoids in AB Red,"[2]; 8° C., 24 days",1.70 µg/mL
same,Stability of Cannabinoids in AB Red,"[2]; 8° C., 25 days",1.63 µg/mL
same,Stability of Cannabinoids in AB Red,"[2]; 8° C., 26 days",1.63 µg/mL
same,Stability of Cannabinoids in AB Red,"[2]; 8° C., 29 days",1.66 µg/mL
same,Stability of Cannabinoids in AB Red,"[2]; 8° C., 30 days",1.70 µg/mL
same,Stability of Cannabinoids in AB Red,"[2]; 8° C., 60 days",1.66 µg/mL
same,Stability of Cannabinoids in AB Red,"[2]; 8° C., 90 days",1.68 µg/mL
same,Stability of Cannabinoids in AB Red,"[2]; 8° C., 120 days",1.65 µg/mL
same,Stability of Cannabinoids in AB Red,"[2]; 8° C., 150 days",1.66 µg/mL
same,Stability of Cannabinoids in AB Red,"[2]; 8° C., 180 days",1.60 µg/mL
same,Stability of Cannabinoids in AB Red,"[2]; 8° C., 210 days",1.65 µg/mL
same,Stability of Cannabinoids in AB Red,"[2]; 8° C., 240 days",1.66 µg/mL
same,Stability of Cannabinoids in AB Red,"[2]; 8° C., 270 days",1.63 µg/mL
same,Stability of Cannabinoids in AB Red,"[2]; 8° C., 300 days",1.65 µg/mL
same,Stability of Cannabinoids in AB Red,"[2]; 8° C., 330 days",1.60 µg/mL
same,Stability of Cannabinoids in AB Red,"[2]; 8° C., 390 days",1.63 µg/mL
same,Stability of Cannabinoids in AB Red,"[2]; 8° C., 420 days",1.63 µg/mL
same,Stability of Cannabinoids in AB Red,"[2]; 8° C., 450 days",1.63 µg/mL
same,Stability of Cannabinoids in AB Red,"[2]; 8° C., 480 days",1.60 µg/mL
same,Stability of Cannabinoids in AB Red,"[2]; 8° C., 510 days",1.55 µg/mL
same,Stability of Cannabinoids in AB Red,"[2]; 8° C., 540 days",1.55 µg/mL
same,Stability of Cannabinoids in AB Red,"[2]; 8° C., 570 days",1.54 µg/mL
same,Stability of Cannabinoids in AB Red,"[2]; 21-25° C., 0 days",1.68 µg/mL
same,Stability of Cannabinoids in AB Red,"[2]; 21-25° C., 1 days",1.70 µg/mL
same,Stability of Cannabinoids in AB Red,"[2]; 21-25° C., 2 days",1.65 µg/mL
same,Stability of Cannabinoids in AB Red,"[2]; 21-25° C., 3 days",1.64 µg/mL
same,Stability of Cannabinoids in AB Red,"[2]; 21-25° C., 5 days",1.69 µg/mL
same,Stability of Cannabinoids in AB Red,"[2]; 21-25° C., 8 days",1.64 µg/mL
same,Stability of Cannabinoids in AB Red,"[2]; 21-25° C., 9 days",1.63 µg/mL
same,Stability of Cannabinoids in AB Red,"[2]; 21-25° C., 10 days",1.61 µg/mL
same,Stability of Cannabinoids in AB Red,"[2]; 21-25° C., 11 days",1.64 µg/mL
same,Stability of Cannabinoids in AB Red,"[2]; 21-25° C., 12 days",1.70 µg/mL
same,Stability of Cannabinoids in AB Red,"[2]; 21-25° C., 15 days",1.64 µg/mL
same,Stability of Cannabinoids in AB Red,"[2]; 21-25° C., 16 days",1.67 µg/mL
same,Stability of Cannabinoids in AB Red,"[2]; 21-25° C., 17 days",1.63 µg/mL
same,Stability of Cannabinoids in AB Red,"[2]; 21-25° C., 18 days",1.65 µg/mL
same,Stability of Cannabinoids in AB Red,"[2]; 21-25° C., 19 days",1.70 µg/mL
same,Stability of Cannabinoids in AB Red,"[2]; 21-25° C., 22 days",1.66 µg/mL
same,Stability of Cannabinoids in AB Red,"[2]; 21-25° C., 23 days",1.63 µg/mL
same,Stability of Cannabinoids in AB Red,"[2]; 21-25° C., 24 days",1.65 µg/mL
same,Stability of Cannabinoids in AB Red,"[2]; 21-25° C., 25 days",1.64 µg/mL
same,Stability of Cannabinoids in AB Red,"[2]; 21-25° C., 26 days",1.67 µg/mL
same,Stability of Cannabinoids in AB Red,"[2]; 21-25° C., 29 days",1.62 µg/mL
same,Stability of Cannabinoids in AB Red,"[2]; 21-25° C., 30 days",1.68 µg/mL
same,Stability of Cannabinoids in AB Red,"[2]; 21-25° C., 60 days",1.59 µg/mL
same,Stability of Cannabinoids in AB Red,"[2]; 21-25° C., 90 days",1.60 µg/mL
same,Stability of Cannabinoids in AB Red,"[2]; 21-25° C., 120 days",1.64 µg/mL
same,Stability of Cannabinoids in AB Red,"[2]; 21-25° C., 150 days",1.58 µg/mL
same,Stability of Cannabinoids in AB Red,"[2]; 21-25° C., 180 days",1.64 µg/mL
same,Stability of Cannabinoids in AB Red,"[2]; 21-25° C., 210 days",1.64 µg/mL
same,Stability of Cannabinoids in AB Red,"[2]; 21-25° C., 240 days",1.60 µg/mL
same,Stability of Cannabinoids in AB Red,"[2]; 21-25° C., 270 days",1.65 µg/mL
same,Stability of Cannabinoids in AB Red,"[2]; 21-25° C., 300 days",1.58 µg/mL
same,Stability of Cannabinoids in AB Red,"[2]; 21-25° C., 330 days",1.65 µg/mL
same,Stability of Cannabinoids in AB Red,"[2]; 21-25° C., 390 days",1.61 µg/mL
same,Stability of Cannabinoids in AB Red,"[2]; 21-25° C., 420 days",1.59 µg/mL
same,Stability of Cannabinoids in AB Red,"[2]; 21-25° C., 450 days",1.57 µg/mL
same,Stability of Cannabinoids in AB Red,"[2]; 21-25° C., 480 days",1.57 µg/mL
same,Stability of Cannabinoids in AB Red,"[2]; 21-25° C., 510 days",1.56 µg/mL
same,Stability of Cannabinoids in AB Red,"[2]; 21-25° C., 540 days",1.57 µg/mL
same,Stability of Cannabinoids in AB Red,"[2]; 21-25° C., 570 days",1.54 µg/mL
